The results in this text go back to patent US10206394B2, “Herbicidal compounds” (Syngenta Participations AG, priority 2014, dated 2019).

Where two headings read alike, the source gives them in different places.

Assay in all cases: Glasshouse assay for herbicidal activity (pre- and post-emergence), percentage phytotoxicity
Common to all, as to type: in vivo

Experiment [1] deals with Alopecurus myosuroides (ALOMY). The settings on record: Alopecurus myosuroides. Put shortly:
(§1)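 Pot-grown, standard soil. PRE: spray 1 d post-sowing; POST: ~12 d. Glasshouse 24/18 °C (warm spp.) / 20/16 °C (cool spp.), 16 h light, 65% RH, watered 2×/day. Visual % damage, 20 DAA PRE, 15 DAA POST.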

Another experiment concerns Avena fatua (AVEFA). The note with it: Avena fatua. Put shortly:
as §1

In the next experiment the test system is Lolium perenne (LOLPE). The settings on record: Lolium perenne. Put shortly: as §1
Experiment [2] has as its system Echinochloa crus-galli (ECHCG). The note with it: Echinochloa crus-galli. The procedure, abridged: as §1
Setting [3] is: post-emergence, 360 h, 250 g/ha, post-emergence, 15 DAA, visual assessment (100%=total damage, 0%=no damage), read-out: Post-emergence herbicidal activity (percentage phytotoxicity) ALOMY POST.
Where [4] appears, read: pre-emergence, 480 h, 250 g/ha, pre-emergence, 20 DAA, visual assessment (100%=total damage, 0%=no damage), read-out: Pre-emergence herbicidal activity (percentage phytotoxicity) ALOMY PRE.
[5] abbreviates: post-emergence, 360 h, 250 g/ha, post-emergence, 15 DAA, visual assessment (100%=total damage, 0%=no damage), read-out: Post-emergence herbicidal activity (percentage phytotoxicity) AVEFA POST.
Where [6] appears, read: pre-emergence, 480 h, 250 g/ha, pre-emergence, 20 DAA, visual assessment (100%=total damage, 0%=no damage), read-out: Pre-emergence herbicidal activity (percentage phytotoxicity) AVEFA PRE.
Setting [7] is: post-emergence, 360 h, 250 g/ha, post-emergence, 15 DAA, visual assessment (100%=total damage, 0%=no damage), read-out: Post-emergence herbicidal activity (percentage phytotoxicity) LOLPE POST.
Setting [8] is: pre-emergence, 480 h, 250 g/ha, pre-emergence, 20 DAA, visual assessment (100%=total damage, 0%=no damage), read-out: Pre-emergence herbicidal activity (percentage phytotoxicity) LOLPE PRE.
Where [9] appears, read: post-emergence, 360 h, 250 g/ha, post-emergence, 15 DAA, visual assessment (100%=total damage, 0%=no damage), read-out: Post-emergence herbicidal activity (percentage phytotoxicity) ECHCG POST.
Setting [10] is: pre-emergence, 480 h, 250 g/ha, pre-emergence, 20 DAA, visual assessment (100%=total damage, 0%=no damage), read-out: Pre-emergence herbicidal activity (percentage phytotoxicity) ECHCG PRE.

`CC(C)=CNC(=O)CC1CC(=O)C(c2c(C)cc(-c3ccc(C#N)cn3)cc2C)C1=O` (stereo not shown) [Compound B319]: the pest or weed control at 250 g/ha in experiment [1] (post-emergence, 360 h, POST-emergence, rate 250 g/ha, visual score 15 DAA (100%=total damage, 0%=no damage), read-out: Post-emergence herbicidal activity (percentage phytotoxicity) ALOMY POST) was determined as 70%; in experiment [1] (pre-emergence, 480 h, PRE-emergence, rate 250 g/ha, visual score 20 DAA (100%=total damage, 0%=no damage), read-out: Pre-emergence herbicidal activity (percentage phytotoxicity) ALOMY PRE), 0%; in the experiment on Avena fatua (AVEFA) (post-emergence, 360 h, POST-emergence, rate 250 g/ha, visual score 15 DAA (100%=total damage, 0%=no damage), read-out: Post-emergence herbicidal activity (percentage phytotoxicity) AVEFA POST), 80%; with Avena fatua (AVEFA) (pre-emergence, 480 h, PRE-emergence, rate 250 g/ha, visual score 20 DAA (100%=total damage, 0%=no damage), read-out: Pre-emergence herbicidal activity (percentage phytotoxicity) AVEFA PRE) it was 0%; with Lolium perenne (LOLPE) (post-emergence, 360 h, POST-emergence, rate 250 g/ha, visual score 15 DAA (100%=total damage, 0%=no damage), read-out: Post-emergence herbicidal activity (percentage phytotoxicity) LOLPE POST) it was 60%; with Lolium perenne (LOLPE) (pre-emergence, 480 h, PRE-emergence, rate 250 g/ha, visual score 20 DAA (100%=total damage, 0%=no damage), read-out: Pre-emergence herbicidal activity (percentage phytotoxicity) LOLPE PRE), 0%. Also, the pest or weed control at 250 g/ha worked out at 100% in experiment [2] (post-emergence, 360 h, POST-emergence, rate 250 g/ha, visual score 15 DAA (100%=total damage, 0%=no damage), read-out: Post-emergence herbicidal activity (percentage phytotoxicity) ECHCG POST) and 0% in experiment [2] (pre-emergence, 480 h, PRE-emergence, rate 250 g/ha, visual score 20 DAA (100%=total damage, 0%=no damage), read-out: Pre-emergence herbicidal activity (percentage phytotoxicity) ECHCG PRE).

`Cc1cc(-c2ncc(F)cc2F)cc(C)c1C1C(=O)CC(CC(=O)NCc2ccc(Br)cc2)C1=O` (stereo not shown) [Compound B100]: the pest or weed control at 250 g/ha in experiment [1] (setting [3]) was found to be 100%; in experiment [1] (setting [4]) it was 80%; with Avena fatua (AVEFA) (setting [5]) it was 100%; in the experiment with Avena fatua (AVEFA) (setting [6]) it was 60%; with Lolium perenne (LOLPE) (setting [7]), 100%; with Lolium perenne (LOLPE) (setting [8]) it was 90%. The pest or weed control at 250 g/ha in experiment [2] (setting [9]) and in experiment [2] (setting [10]) was 100% in each case.

Regarding `Cc1cc(-c2ncc(F)cc2F)cc(C)c1C1C(=O)C[C@H](CC(=O)NC(C)(C)C)C1=O` (stereo partly shown) [Compound B52], the pest or weed control at 250 g/ha was 100% in experiment [1] (setting [3]); 90% in experiment [1] (setting [4]); 90% in the experiment on Avena fatua (AVEFA) (setting [5]); 70% in the experiment on Avena fatua (AVEFA) (setting [6]); 100% with Lolium perenne (LOLPE) (setting [7]); 100% in the experiment with Lolium perenne (LOLPE) (setting [8]). Also, the pest or weed control at 250 g/ha was 100% in experiment [2] (setting [9]) and 90% in experiment [2] (setting [10]).

As for `Cc1cc(C)c(C2C(=O)CC(CC(=O)NC/C=C/Br)C2=O)c(C)c1` (stereo not shown) [Compound B115], the pest or weed control at 250 g/ha in experiment [1] (setting [3]) worked out at 80%; in experiment [1] (setting [4]) it was 80%; in the experiment with Avena fatua (AVEFA) (setting [5]), 80%; in the experiment on Avena fatua (AVEFA) (setting [6]) it was 50%; in the experiment on Lolium perenne (LOLPE) (setting [7]) it was 100%; with Lolium perenne (LOLPE) (setting [8]) it was 100%. For the same compound, the pest or weed control at 250 g/ha amounted to 90% in experiment [2] (setting [9]) and 100% in experiment [2] (setting [10]).

For the compound `COCCOCCCNC(=O)CC1CC(=O)C(c2c(C)cc(C)cc2C)C1=O` (stereo not shown) [Compound B7], the pest or weed control at 250 g/ha in experiment [1] (setting [3]) was found to be 100%; in experiment [1] (setting [4]), 100%; in the experiment on Avena fatua (AVEFA) (setting [5]), 100%; with Avena fatua (AVEFA) (setting [6]), 90%; in the experiment with Lolium perenne (LOLPE) (setting [7]) it was 80%; with Lolium perenne (LOLPE) (setting [8]), 90%. In addition, the pest or weed control at 250 g/ha in experiment [2] (setting [9]) was 100%; in experiment [2] (setting [10]), 80%.

Consider `Cc1cc(C)c(C2C(=O)CC(CC(=O)NC3CC3(F)F)C2=O)c(C)c1` (stereo not shown) [Compound B98], for which the pest or weed control at 250 g/ha in experiment [1] (setting [3]) was determined as 60%; in experiment [1] (setting [4]), 60%; in the experiment with Avena fatua (AVEFA) (setting [5]), 20%; with Avena fatua (AVEFA) (setting [6]), 0%; in the experiment on Lolium perenne (LOLPE) (setting [7]), 80%; with Lolium perenne (LOLPE) (setting [8]) it was 90%. The pest or weed control at 250 g/ha was determined as 60% in experiment [2] (setting [9]) and 80% in experiment [2] (setting [10]).

In the case of `C=C(C)CNC(=O)CC1CC(=O)C(c2c(C)cccc2CC)C1=O` (stereo not shown) [Compound B152], the pest or weed control at 250 g/ha worked out at 100% in experiment [1] (setting [3]); 100% in experiment [1] (setting [4]); 90% with Avena fatua (AVEFA) (setting [5]); 50% with Avena fatua (AVEFA) (setting [6]); 90% in the experiment with Lolium perenne (LOLPE) (setting [7]); 100% in the experiment on Lolium perenne (LOLPE) (setting [8]). Also, the pest or weed control at 250 g/ha in experiment [2] (setting [9]) and in experiment [2] (setting [10]) was 100% each time.

Turning to `Cc1cc(C)c(C2C(=O)CC(CC(=O)NC(C)(C)C3CC3)C2=O)c(C)c1` (stereo not shown) [Compound B65], the pest or weed control at 250 g/ha in experiment [1] (setting [3]) came to 70%; in experiment [1] (setting [4]), 80%; in the experiment on Avena fatua (AVEFA) (setting [5]), 50%; in the experiment with Avena fatua (AVEFA) (setting [6]) it was 60%; with Lolium perenne (LOLPE) (setting [7]), 70%; in the experiment with Lolium perenne (LOLPE) (setting [8]), 80%. For the same compound, the values for the pest or weed control at 250 g/ha in experiment [2] (setting [9]) and in experiment [2] (setting [10]) were 70% and 90%, respectively.
